Molecular target: T1, Thymidylate kinase (Mycobacterium tuberculosis, UniProt P9WKE1)
T1 sequence (P9WKE1 whole entry): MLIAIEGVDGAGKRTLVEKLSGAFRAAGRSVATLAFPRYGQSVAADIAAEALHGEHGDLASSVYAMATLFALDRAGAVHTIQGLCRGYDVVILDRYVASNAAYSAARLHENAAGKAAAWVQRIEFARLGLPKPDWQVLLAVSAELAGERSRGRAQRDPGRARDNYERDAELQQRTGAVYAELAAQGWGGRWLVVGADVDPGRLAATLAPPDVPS
Test: Inhibition of recombinant Mycobacterium tuberculosis TMPK overexpressed in Escherichia coli assessed as inhibition constant by spectrophotometric assay

## Cc1cn(C/C=C\CN2c3cccc4cccc(c34)S2(=O)=O)c(=O)[nH]c1=O
  Ki: 270 nM
